# How the values were obtained:
# mTRPA1 = target: T1, mTRPA1 (Mus musculus, UniProt Q8BLA8); test: Fluo-3 calcium imaging of mTRPA1-transfected HEK293T cells; type: cell-based
# T1 construct: expressed in transfected cells; host or cells: HEK293T (ATCC CRL-11268), pcDNA5/FRT
# Experimental: (§1) Particularly, the HEK293T cell line was transiently transfected with individual TRP channel plasmid (pcDNA3.1 containing polynucleotide encoding hTRPA1, rTRPV2, rTRPV1 or mTRPV4; pcDNA5/FRT containing polynucleotide encoding mTRPA1, hTRPV3 or mTRPM8) 3 μg per 35-mm dish and 600 ng/well of pcDNA3 (Invitrogen Corp., USA; containing green fluorescent protein (GFP) cDNA) using Fugene6 (Roche Diagnostics, USA) according to manufacturer's instruction. The transformed cells were cultured in DMEM/F12 containing 10% FBS and 1% penicillin/streptomycin in a CO2 incubator for 24 hours. The cells were replated onto poly-L-lysine-coated glass coverslips, followed by further culture for 10-24 hours.
# Calcium imaging was performed with a confocal microscope (LSM5 Pascal, Carl Zeiss, Germany), and time-lapse images (488 nm excitation/514 nm emission) were collected every 3 seconds using Carl Zeiss ratio tool software (Carl Zeiss, Germany).
# Stock solutions were made using water or ethanol, and were diluted with test solutions before use.
# TRPV1 = target: T2, TRPV1 (Rattus norvegicus, UniProt O35433); test: Calcium imaging of TRP transfected cell lines treated with acetaldehyde (TRPV1); type: cell-based; conditions: 1 mM acetaldehyde
# T2 construct: expressed in transfected cells; host or cells: HEK293T (ATCC CRL-11268), pcDNA3.1
# Source text: (§2) HEK293T cell line (ATCC CRL-11268) was transiently transfected with plasmid DNA containing polynucleotide encoding hTRPA1 (SEQ. ID. NO: 1), rTRPV2 (SEQ. ID. NO: 2), rTRPV1 (SEQ. ID. NO: 3), mTRPV4 (SEQ. ID. NO: 4), mTRPA1 (SEQ. ID. NO: 5), hTRPV3 (SEQ. ID. NO: 6) or mTRPM8 (SEQ. ID. NO: 7).
# as §1
# (§3) Particularly, the transfected cell line of Example <4-1> was loaded with Fluo-3AM (5 μM; Sigma Aldrich, USA) in the bath solution (140 mM NaCl, 5 mM KCl, 2 mM CaCl2, 1 mM MgCl2, 10 mM HEPES; adjusted to pH 7.4 with NaOH) containing 0.02% pluronic acid (Invitrogen, USA). […]
# TRPV2 = target: T3, TRPV2 (Rattus norvegicus, UniProt Q9WUD2, A713V/L151P/T158I); test: Calcium imaging of TRP transfected cell lines treated with acetaldehyde (TRPV2); type: cell-based; conditions: 1 mM acetaldehyde
# T3 construct: expressed in transfected cells; host or cells: HEK293T (ATCC CRL-11268), pcDNA3.1
# T3 sequence (Q9WUD2 1-761 L151P/T158I/A713V): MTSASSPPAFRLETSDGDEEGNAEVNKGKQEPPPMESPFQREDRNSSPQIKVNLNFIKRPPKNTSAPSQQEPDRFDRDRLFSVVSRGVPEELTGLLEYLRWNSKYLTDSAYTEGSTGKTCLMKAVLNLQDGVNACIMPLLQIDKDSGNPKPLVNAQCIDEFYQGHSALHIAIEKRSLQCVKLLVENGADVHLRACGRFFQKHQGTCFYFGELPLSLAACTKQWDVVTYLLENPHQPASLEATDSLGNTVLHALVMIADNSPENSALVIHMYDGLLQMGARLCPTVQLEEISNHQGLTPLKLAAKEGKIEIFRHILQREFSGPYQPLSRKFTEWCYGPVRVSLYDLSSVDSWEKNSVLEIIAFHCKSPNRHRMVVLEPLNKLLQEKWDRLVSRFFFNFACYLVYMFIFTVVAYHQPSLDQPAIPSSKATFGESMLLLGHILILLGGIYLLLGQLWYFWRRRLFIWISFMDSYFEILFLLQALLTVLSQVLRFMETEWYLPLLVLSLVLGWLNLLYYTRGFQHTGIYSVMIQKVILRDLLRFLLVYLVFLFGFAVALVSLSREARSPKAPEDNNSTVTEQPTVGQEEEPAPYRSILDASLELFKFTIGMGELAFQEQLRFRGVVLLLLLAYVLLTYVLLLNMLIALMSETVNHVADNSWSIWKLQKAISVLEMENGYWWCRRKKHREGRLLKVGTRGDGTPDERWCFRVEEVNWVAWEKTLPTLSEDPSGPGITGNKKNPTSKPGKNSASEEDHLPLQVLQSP
# Source text: as §2, §1, §3
# trigeminal neurons = test: Whole-cell voltage-clamp recording of cultured trigeminal neurons; type: cell-based, mouse; conditions: 1 mM acetaldehyde, n=6
# Experimental: Trigeminal ganglia were dissected out of decapitated adult ICR mice in cold PBS and treated with 1.5 mg/Ml of collagenase/dispase (Roche Diagnostics, USA) at 37 °C for 45 min, and then treated with 0.25% trypsin (Invitrogen, USA) for 15 min. The trigeminal neurons prepared thereby were then plated onto poly-L-lysine-coated coverslips in DMEM/F12 containing 10% FBS, 1% penicillin/streptomycin and 5 ng/Ml of 2.5S NGF (Invitrogen, USA), nerve growth factor (Invitrogen), followed by culture in a CO2 incubator for 48-72 hours.
# Particularly, the extracellular solution (140 mM NaCl, 5 mM KCl, 2 mM CaCl2, 1 mM MgCl2, 10 mM HEPES; titrated to pH 7.4 with NaOH) and the pipette solution (140 mM CsCl, 5 mM EGTA, 10 mM HEPES, 2.0 mM MgATP, 0.2 mM NaGTP; titrated to pH 7.2 with CsOH) were used. The potential was holded at −60 mV for 250 ms, voltage-ramp pulsed from −80 mV to +80 mV for […] and returned to −60 mV for 250 ms, which was repeated without intersweep. This experiment was repeated 5 times.
# The trigeminal neurons prepared by the same manner as described in Example 2 were delayed-treated with 1 mM acetaldehyde, followed by treatment of 20 μM GdCl3 (a TRPA1 blocker gadolinium; Sigma-Aldrich, USA) and 2 mM camphor. Then, whole-cell voltage-clamp recording was performed by the same manner as described in Example <5-2>.
# T1 sequence (Q8BLA8 whole entry): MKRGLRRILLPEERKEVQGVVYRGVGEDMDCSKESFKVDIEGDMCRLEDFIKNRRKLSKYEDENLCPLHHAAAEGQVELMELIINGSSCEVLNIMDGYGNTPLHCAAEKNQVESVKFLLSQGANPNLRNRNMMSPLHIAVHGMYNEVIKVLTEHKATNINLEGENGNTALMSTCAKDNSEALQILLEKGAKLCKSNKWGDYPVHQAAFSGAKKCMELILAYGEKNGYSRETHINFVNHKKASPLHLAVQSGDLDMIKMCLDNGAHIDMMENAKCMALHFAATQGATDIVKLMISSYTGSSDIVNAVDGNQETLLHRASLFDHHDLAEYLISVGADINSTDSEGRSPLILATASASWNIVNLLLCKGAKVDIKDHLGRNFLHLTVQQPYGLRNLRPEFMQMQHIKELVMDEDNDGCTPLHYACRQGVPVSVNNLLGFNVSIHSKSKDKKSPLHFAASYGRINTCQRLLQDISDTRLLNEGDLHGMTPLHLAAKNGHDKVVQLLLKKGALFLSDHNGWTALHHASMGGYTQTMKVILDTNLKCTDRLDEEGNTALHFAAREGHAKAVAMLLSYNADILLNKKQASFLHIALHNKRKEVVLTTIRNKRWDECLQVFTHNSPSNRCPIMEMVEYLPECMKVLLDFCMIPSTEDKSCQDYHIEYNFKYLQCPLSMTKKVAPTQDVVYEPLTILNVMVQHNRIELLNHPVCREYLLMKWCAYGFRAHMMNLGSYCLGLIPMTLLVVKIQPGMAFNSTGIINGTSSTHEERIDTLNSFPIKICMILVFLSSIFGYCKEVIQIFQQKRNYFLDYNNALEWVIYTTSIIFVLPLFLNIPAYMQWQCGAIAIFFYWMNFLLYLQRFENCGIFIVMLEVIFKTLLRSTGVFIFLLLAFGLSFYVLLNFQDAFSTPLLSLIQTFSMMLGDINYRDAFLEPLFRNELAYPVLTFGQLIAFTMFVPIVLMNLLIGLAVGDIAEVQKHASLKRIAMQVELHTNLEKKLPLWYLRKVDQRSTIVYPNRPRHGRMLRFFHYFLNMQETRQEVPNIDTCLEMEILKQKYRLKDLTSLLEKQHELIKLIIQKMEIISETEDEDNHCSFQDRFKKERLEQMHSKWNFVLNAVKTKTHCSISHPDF
# T2 sequence (O35433 whole entry): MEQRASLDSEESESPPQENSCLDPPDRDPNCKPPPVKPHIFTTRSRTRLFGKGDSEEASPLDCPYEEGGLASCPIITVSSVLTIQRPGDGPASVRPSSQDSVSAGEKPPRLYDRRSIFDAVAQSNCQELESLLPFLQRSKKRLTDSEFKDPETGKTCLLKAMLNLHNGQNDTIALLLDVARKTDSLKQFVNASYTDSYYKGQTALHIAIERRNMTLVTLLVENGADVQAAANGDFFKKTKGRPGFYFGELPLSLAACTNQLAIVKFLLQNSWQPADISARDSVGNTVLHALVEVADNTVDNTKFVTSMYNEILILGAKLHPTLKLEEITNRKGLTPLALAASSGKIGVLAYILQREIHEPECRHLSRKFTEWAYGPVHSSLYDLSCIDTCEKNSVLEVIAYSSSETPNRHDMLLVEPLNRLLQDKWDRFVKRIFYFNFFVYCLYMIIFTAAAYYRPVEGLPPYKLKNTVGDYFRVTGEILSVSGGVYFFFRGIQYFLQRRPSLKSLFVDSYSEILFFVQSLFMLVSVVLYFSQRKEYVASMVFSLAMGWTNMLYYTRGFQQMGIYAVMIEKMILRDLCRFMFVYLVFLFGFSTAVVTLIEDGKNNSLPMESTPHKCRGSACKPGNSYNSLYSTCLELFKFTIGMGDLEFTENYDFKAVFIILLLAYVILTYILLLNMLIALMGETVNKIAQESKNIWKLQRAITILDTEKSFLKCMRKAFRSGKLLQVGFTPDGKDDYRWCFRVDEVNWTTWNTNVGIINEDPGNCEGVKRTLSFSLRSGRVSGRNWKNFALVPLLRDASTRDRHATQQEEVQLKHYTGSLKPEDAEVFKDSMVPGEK
smiles,measurement,setting,value
CC=O [acetaldehyde],EC50,mTRPA1,1190 µM
same,n of dose-response curve (Hill plot) on mTRPA1,"mTRPA1; acetaldehyde 1 to 10^4 μM, Fluo-3 calcium imaging",3.1
same,maximum efficacy in mTRPA1 responses compared with hTRPA1,"mTRPA1; dose-response, calcium imaging",greater maximum efficacy
same,activation of TRPV1 by acetaldehyde,TRPV1,only TRPA1 was activated
same,activation of TRPV2 by acetaldehyde,TRPV2,only TRPA1 was activated
same,current increase in trigeminal neurons,trigeminal neurons,increased current
